Source: ChEMBL document CHEMBL1201862, “PubChem BioAssay data set” (2004)
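Compound exposure: 48 hours, 5 concentrations, 96-well plates. GI50 = concentration required for 50% inhibition of growth.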 Active and inactive are the calls of the source. Cut-off read from the data, not from the text of the source: active = GI50 up to about 1.1 µM and inactive = higher.

Legend:
Assay in all cases: NCI tumour cell line growth inhibition, 48 h
OVCAR-4 = tested on: OVCAR-4
OVCAR-8 = tested on: OVCAR-8
MOLT-4 = tested on: MOLT-4
RXF 393 = tested on: RXF 393
COLO 205 = tested on: COLO 205
NCI-H226 = tested on: NCI-H226
NCI-H23 = tested on: NCI-H23
UACC-257 = tested on: UACC-257
CAKI-1 = tested on: CAKI-1
M14 = tested on: M14
SK-MEL-5 = tested on: SK-MEL-5
ACHN = tested on: ACHN
MCF7 = tested on: MCF7
SW-620 = tested on: SW-620
HCT-15 = tested on: HCT-15
HOP-92 = tested on: HOP-92
DU-145 = tested on: DU-145
NCI/ADR-RES = tested on: NCI/ADR-RES
IGROV-1 = tested on: IGROV-1
SR = tested on: SR
TK-10 = tested on: TK-10
786-0 = tested on: 786-0
SF-295 = tested on: SF-295
K562 = tested on: K562
UO-31 = tested on: UO-31
HCT-116 = tested on: HCT-116
MDA-MB-231 = tested on: MDA-MB-231
SK-OV-3 = tested on: SK-OV-3
OVCAR-5 = tested on: OVCAR-5
OVCAR-3 = tested on: OVCAR-3
NCI-H460 = tested on: NCI-H460
HT-29 = tested on: HT-29
SK-MEL-2 = tested on: SK-MEL-2
KM12 = tested on: KM12
BT-549 = tested on: BT-549
HL-60 = tested on: HL-60
EKVX = tested on: EKVX
MDA-MB-435 = tested on: MDA-MB-435
SK-MEL-28 = tested on: SK-MEL-28
U-251 = tested on: U-251
HOP-62 = tested on: HOP-62
A549 = tested on: A549
LOX IMVI = tested on: LOX IMVI
A498 = tested on: A498
PC-3 = tested on: PC-3
UACC-62 = tested on: UACC-62
SNB-19 = tested on: SNB-19
RPMI-8226 = tested on: RPMI-8226
MDA-N = tested on: MDA-N
SF-539 = tested on: SF-539
T47D = tested on: T47D
SN12C = tested on: SN12C
Malme-3M = tested on: Malme-3M
SF-268 = tested on: SF-268
SNB-75 = tested on: SNB-75
NCI-H522 = tested on: NCI-H522
HCC 2998 = tested on: HCC 2998
CCRF-CEM = tested on: CCRF-CEM
Hs-578T = tested on: Hs-578T

`O=C(O)c1ccc([N+](=O)[O-])c(P(=O)(O)O)c1` was tested, and the GI50 (OVCAR-4) was > 100 µM (inactive), the GI50 (OVCAR-8) was > 100 µM (inactive) and the GI50 (MOLT-4) was > 100 µM (inactive). For the same compound, the GI50 (RXF 393) was > 100 µM (inactive), the GI50 (COLO 205) was > 100 µM (inactive) and the GI50 (NCI-H226) was > 100 µM (inactive). For the same compound, the GI50 (NCI-H23) was > 100 µM (inactive), the GI50 (UACC-257) was > 100 µM (inactive) and the GI50 (CAKI-1) was > 100 µM (inactive). For the same compound, the GI50 (M14) was > 100 µM (inactive), the GI50 (SK-MEL-5) was > 100 µM (inactive) and the GI50 (ACHN) was > 100 µM (inactive). For the same compound, the GI50 (MCF7) was > 100 µM (inactive), the GI50 (SW-620) was > 100 µM (inactive) and the GI50 (HCT-15) was greater than 100 µM. The GI50 (HOP-92) was > 100 µM (inactive), the GI50 (DU-145) was > 100 µM (inactive) and the GI50 (NCI/ADR-RES) was > 100 µM (inactive). For the same compound, the GI50 (IGROV-1) was > 100 µM (inactive), the GI50 (SR) was > 100 µM (inactive) and the GI50 (TK-10) was > 100 µM (inactive). For the same compound, the GI50 (786-0) was > 100 µM (inactive), the GI50 (SF-295) was > 100 µM (inactive) and the GI50 (K562) was > 100 µM (inactive). The GI50 (UO-31) was > 100 µM (inactive), the GI50 (HCT-116) was > 100 µM (inactive) and the GI50 (MDA-MB-231) was > 100 µM (inactive). The GI50 (SK-OV-3) was > 100 µM (inactive), the GI50 (OVCAR-5) was > 100 µM (inactive) and the GI50 (OVCAR-3) was > 100 µM (inactive). For the same compound, the GI50 (NCI-H460) was > 100 µM (inactive), the GI50 (HT-29) was > 100 µM (inactive) and the GI50 (SK-MEL-2) was > 100 µM (inactive). The GI50 (KM12) was > 100 µM (inactive), the GI50 (BT-549) was > 100 µM (inactive) and the GI50 (HL-60) was > 100 µM (inactive). The GI50 (EKVX) was > 100 µM (inactive), the GI50 (MDA-MB-435) was > 100 µM (inactive) and the GI50 (SK-MEL-28) was > 100 µM (inactive). For the same compound, the GI50 (U-251) was > 100 µM (inactive), the GI50 (HOP-62) was > 100 µM (inactive) and the GI50 (A549) was > 100 µM (inactive). The GI50 (LOX IMVI) was > 100 µM (inactive), the GI50 (A498) was > 100 µM (inactive) and the GI50 (PC-3) was > 100 µM (inactive). For the same compound, the GI50 (UACC-62) was > 100 µM (inactive), the GI50 (SNB-19) was > 100 µM (inactive) and the GI50 (RPMI-8226) was > 100 µM (inactive). For the same compound, the GI50 (MDA-N) was > 100 µM (inactive), the GI50 (SF-539) was > 100 µM (inactive) and the GI50 (T47D) was > 100 µM (inactive). The GI50 (SN12C) was > 100 µM (inactive).
For `Cc1cc2nc3c(C#N)c(-c4ccccc4)cc(Nc4ccc(Cl)cc4)n3c2cc1C`, the GI50 (OVCAR-4) was > 100 µM (inactive), the GI50 (OVCAR-8) was 48.2 µM (inactive) and the GI50 (RXF 393) was > 100 µM (inactive). For the same compound, the GI50 (COLO 205) was > 100 µM (inactive), the GI50 (Malme-3M) was > 100 µM (inactive) and the GI50 (NCI-H226) was > 100 µM (inactive). For the same compound, the GI50 (SF-268) was 51.6 µM (inactive), the GI50 (NCI-H23) was > 100 µM (inactive) and the GI50 (SNB-75) was > 100 µM (inactive). The GI50 (UACC-257) was > 100 µM (inactive), the GI50 (CAKI-1) was > 100 µM (inactive) and the GI50 (M14) was > 100 µM (inactive). For the same compound, the GI50 (SK-MEL-5) was > 100 µM (inactive), the GI50 (ACHN) was > 100 µM (inactive) and the GI50 (MCF7) was > 100 µM (inactive). For the same compound, the GI50 (SW-620) was > 100 µM (inactive), the GI50 (NCI-H522) was 9.57 µM (inactive) and the GI50 (HCT-15) was greater than 100 µM. For the same compound, the GI50 (HCC 2998) was > 100 µM (inactive), the GI50 (NCI/ADR-RES) was > 100 µM (inactive) and the GI50 (TK-10) was > 100 µM (inactive). The GI50 (786-0) was > 100 µM (inactive), the GI50 (SF-295) was > 100 µM (inactive) and the GI50 (CCRF-CEM) was 4.53 µM (inactive). For the same compound, the GI50 (UO-31) was > 100 µM (inactive), the GI50 (HCT-116) was > 100 µM (inactive) and the GI50 (MDA-MB-231) was > 100 µM (inactive). For the same compound, the GI50 (SK-OV-3) was > 100 µM (inactive), the GI50 (OVCAR-5) was > 100 µM (inactive) and the GI50 (OVCAR-3) was 6.05 µM (inactive). The GI50 (NCI-H460) was 28.5 µM (inactive), the GI50 (SK-MEL-2) was > 100 µM (inactive) and the GI50 (KM12) was 59.4 µM (inactive). The GI50 (BT-549) was > 100 µM (inactive), the GI50 (EKVX) was 8.22 µM (inactive) and the GI50 (MDA-MB-435) was > 100 µM (inactive). For the same compound, the GI50 (SK-MEL-28) was > 100 µM (inactive), the GI50 (U-251) was 15.9 µM (inactive) and the GI50 (HOP-62) was > 100 µM (inactive). For the same compound, the GI50 (A549) was > 100 µM (inactive), the GI50 (LOX IMVI) was > 100 µM (inactive) and the GI50 (A498) was > 100 µM (inactive). The GI50 (PC-3) was > 100 µM (inactive), the GI50 (SNB-19) was > 100 µM (inactive) and the GI50 (RPMI-8226) was 5.6 µM (inactive). The GI50 (MDA-N) was > 100 µM (inactive), the GI50 (SF-539) was > 100 µM (inactive) and the GI50 (T47D) was 6.24 µM (inactive). The GI50 (SN12C) was > 100 µM (inactive).
For `Nc1n[nH]c2nc3ccccc3nc12` [QUINOXALINE1], the GI50 (OVCAR-4) was > 100 µM (inactive), the GI50 (OVCAR-8) was > 100 µM (inactive) and the GI50 (MOLT-4) was 61.1 µM (inactive). The GI50 (RXF 393) was 27.9 µM (inactive), the GI50 (COLO 205) was 61.8 µM (inactive) and the GI50 (Malme-3M) was > 100 µM (inactive). The GI50 (NCI-H226) was 91.8 µM (inactive), the GI50 (SF-268) was 66.4 µM (inactive) and the GI50 (NCI-H23) was > 100 µM (inactive). The GI50 (SNB-75) was 37.1 µM (inactive), the GI50 (UACC-257) was > 100 µM (inactive) and the GI50 (CAKI-1) was 31.9 µM (inactive). For the same compound, the GI50 (SK-MEL-5) was > 100 µM (inactive), the GI50 (Hs-578T) was 39 µM (inactive) and the GI50 (ACHN) was 36 µM (inactive). The GI50 (MCF7) was 61.2 µM (inactive), the GI50 (SW-620) was 86.7 µM (inactive) and the GI50 (NCI-H522) was 44.1 µM (inactive). The GI50 (HCT-15) was 75.2 µM, the GI50 (HOP-92) was > 100 µM (inactive) and the GI50 (DU-145) was 63.5 µM (inactive). The GI50 (HCC 2998) was > 100 µM (inactive), the GI50 (NCI/ADR-RES) was > 100 µM (inactive) and the GI50 (IGROV-1) was 18.1 µM (inactive). For the same compound, the GI50 (SR) was 20 µM (inactive), the GI50 (TK-10) was 70.1 µM (inactive) and the GI50 (SF-295) was > 100 µM (inactive). The GI50 (CCRF-CEM) was 34.4 µM (inactive), the GI50 (K562) was > 100 µM (inactive) and the GI50 (UO-31) was 39.6 µM (inactive). The GI50 (HCT-116) was 31 µM (inactive), the GI50 (MDA-MB-231) was > 100 µM (inactive) and the GI50 (SK-OV-3) was > 100 µM (inactive). For the same compound, the GI50 (OVCAR-5) was 38 µM (inactive), the GI50 (OVCAR-3) was 62.4 µM (inactive) and the GI50 (NCI-H460) was 84.7 µM (inactive). For the same compound, the GI50 (HT-29) was 59.6 µM (inactive), the GI50 (SK-MEL-2) was > 100 µM (inactive) and the GI50 (BT-549) was 64.6 µM (inactive). The GI50 (HL-60) was 34.8 µM (inactive), the GI50 (EKVX) was 73.3 µM (inactive) and the GI50 (MDA-MB-435) was > 100 µM (inactive). For the same compound, the GI50 (SK-MEL-28) was > 100 µM (inactive), the GI50 (U-251) was > 100 µM (inactive) and the GI50 (HOP-62) was 61 µM (inactive). The GI50 (A549) was 61.9 µM (inactive), the GI50 (LOX IMVI) was 47 µM (inactive) and the GI50 (A498) was 33.7 µM (inactive). The GI50 (PC-3) was > 100 µM (inactive), the GI50 (UACC-62) was 45 µM (inactive) and the GI50 (SNB-19) was > 100 µM (inactive). For the same compound, the GI50 (RPMI-8226) was 36.1 µM (inactive), the GI50 (MDA-N) was > 100 µM (inactive) and the GI50 (SF-539) was 61.7 µM (inactive). For the same compound, the GI50 (SN12C) was > 100 µM (inactive).
